Where “and” joins values, the source holds several entries; their conditions need not be identical. Identical values can stand only once.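 48-hour exposure; five concentrations; linearly interpolated endpoints. The concentration for 50% growth inhibition is given as GI50. TGI: concentration producing complete growth inhibition.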
Legend:
Experiment in all cases: NCI anticancer screen, dose series, 48 h
OVCAR-8 ovarian = system: OVCAR-8 ovarian
NCI-H460 lung = system: NCI-H460 lung
M14 melanoma = system: M14 melanoma
A549 NSCLC = system: A549 NSCLC
PC-3 prostate = system: PC-3 prostate
SK-MEL-5 melanoma = system: SK-MEL-5 melanoma
RXF 393 renal = system: RXF 393 renal
IGROV1 ovarian = system: IGROV1 ovarian
BT-549 breast = system: BT-549 breast
SNB-19 CNS = system: SNB-19 CNS

SMILES	GI50 (OVCAR-8 ovarian)	TGI (OVCAR-8 ovarian)	GI50 (NCI-H460 lung)	TGI (NCI-H460 lung)	GI50 (M14 melanoma)	TGI (M14 melanoma)	GI50 (A549 NSCLC)	TGI (A549 NSCLC)	GI50 (PC-3 prostate)	TGI (PC-3 prostate)	GI50 (SK-MEL-5 melanoma)	TGI (SK-MEL-5 melanoma)	GI50 (RXF 393 renal)	TGI (RXF 393 renal)	GI50 (IGROV1 ovarian)	TGI (IGROV1 ovarian)	GI50 (BT-549 breast)	TGI (BT-549 breast)	GI50 (SNB-19 CNS)	TGI (SNB-19 CNS)
CCN1CCN(Cc2ccc(-c3cc4c(N[C@H](C)c5ccccc5)ncnc4[nH]3)cc2)CC1	3.5 µM and 8.1 µM	33 µM and > 10 µM	5.55 µM and 6.86 µM	23.3 µM and > 10 µM	1.84 µM and 1.92 µM	3.77 µM and 4.4 µM	1.71 µM and 3.08 µM	13.1 µM and > 10 µM	2.24 µM and 5.07 µM	18.7 µM and > 10 µM	1.76 µM and 1.72 µM	3.68 µM and 3.88 µM	1.17 µM and 0.665 µM	4.27 µM and 3.82 µM	0.112 µM and 0.176 µM	1.51 µM and 7.17 µM	6.3 µM and > 10 µM	22.3 µM and > 10 µM	6.11 µM and 4.04 µM	29.7 µM and > 10 µM
CCCCON(OC(=O)c1ccccc1)C(=O)c1ccccc1	> 100 µM	> 100 µM	> 100 µM	> 100 µM	> 100 µM	> 100 µM	> 100 µM	> 100 µM	> 100 µM	> 100 µM	> 100 µM	> 100 µM	> 100 µM	> 100 µM	> 100 µM	> 100 µM	> 100 µM	> 100 µM	> 100 µM	> 100 µM
Clc1ccc(CSC(Cn2ccnc2)c2ccc(Cl)cc2Cl)cc1 (stereo not given)	1.6 µM	3.32 µM	1.47 µM	2.78 µM	1.69 µM	3.12 µM	1.42 µM	3.13 µM	1.21 µM	3.61 µM	1.61 µM	2.96 µM	1.43 µM	2.76 µM	1.74 µM	4.55 µM	1.63 µM	3.05 µM	1.52 µM	2.89 µM
CC12CCC3C(CCC4Cc5[nH]c6ccccc6c5CC43C)C1CCC2O (stereo not given)	4.1 µM	> 100 µM	0.609 µM	> 100 µM	0.753 µM	> 19.8 µM	2.63 µM	> 100 µM	3.13 µM	> 100 µM	0.75 µM	> 100 µM	0.738 µM	3.31 µM	0.768 µM	> 100 µM	2.65 µM	> 100 µM	2.89 µM	> 100 µM
COc1ccc2[nH]c(=O)c3c4ccccc4cn3c2c1	1.09 µM	3.29 µM	0.19 µM	1.31 µM	0.494 µM	1.92 µM	0.554 µM	2.77 µM	0.429 µM	4.08 µM	0.377 µM	1.44 µM	0.312 µM	1.09 µM	0.575 µM	5.23 µM	7.3 µM	20.9 µM	0.95 µM	9.33 µM
CCOC(=O)c1ccc2[nH]c(-c3ccc(S(=O)(=O)F)cc3)cc(=O)c2c1	–	> 100 µM	–	> 100 µM	–	> 100 µM	–	> 100 µM	–	> 100 µM	–	> 100 µM	–	> 100 µM	–	> 100 µM	–	> 100 µM	–	> 100 µM
Cn1cc(-c2ccc3c(Nc4cccc(NC(=O)Nc5cccc(F)c5)c4)ncnc3c2)cn1	2.25 µM	> 100 µM	0.984 µM	2.41 µM	2.61 µM	14.9 µM	1.85 µM	17.9 µM	2.78 µM	15.5 µM	1.53 µM	2.94 µM	1.2 µM	3.83 µM	1.3 µM	11.2 µM	4.04 µM	16 µM	3.16 µM	13.5 µM
COC(=O)[C@@]12C(=O)C=CC(=O)[C@@H]1C1C(=CC2COC(C)=O)O[C@@H]2OC3(CCCCC3)O[C@H]12 (stereo not given in full)	–	20 µM	–	32.9 µM	–	30.1 µM	–	22.4 µM	–	25.3 µM	–	32.5 µM	–	23.4 µM	–	31.6 µM	–	26 µM	–	29.8 µM
Cc1ccc([N+](=O)[O-])cc1NC(=O)Nc1cccc(F)c1	4.24 µM	> 100 µM	3.09 µM	16.1 µM	22.1 µM	> 100 µM	3.42 µM	26.2 µM	3.44 µM	> 100 µM	4.04 µM	> 100 µM	18.4 µM	61.2 µM	5.78 µM	35.9 µM	45.1 µM	> 100 µM	6.27 µM	97.1 µM
CN(C)CCOc1ccc(-c2nc(-c3ccc4c(c3)CC/C4=N\O)c(-c3ccncc3)[nH]2)cc1	4.84 µM and 3.2 µM	10.1 µM and 8.96 µM	4.14 µM and 4.55 µM	8.24 µM and 17.2 µM	0.0258 µM and 0.054 µM	2.14 µM and 3.69 µM	4.76 µM and 6.36 µM	9.68 µM and 32.7 µM	4.09 µM and 5.66 µM	8.12 µM and 13.7 µM	3.31 µM and 5.46 µM	6.81 µM and 19.9 µM	4.37 µM and 4.3 µM	9.58 µM and 8.17 µM	4.38 µM and 18.6 µM	9.35 µM and 65.6 µM	4.73 µM and 15 µM	9.3 µM and 44.1 µM	5.29 µM and 5.01 µM	10.8 µM and 9.56 µM
NC(=O)NNCc1ccccc1	–	> 100 µM	–	> 100 µM	–	> 100 µM	–	> 100 µM	–	> 100 µM	–	> 100 µM	–	> 100 µM	–	> 100 µM	–	> 100 µM	–	> 100 µM
CCNC(=O)[C@@H]1CCCN2C(=O)CC[C@H](NC(=O)[C@H](Cc3ccc(OP(=O)(O)O)cc3)NC(C)=O)C(=O)N12	> 25 µM	> 25 µM	> 25 µM	> 25 µM	> 25 µM	> 25 µM	> 25 µM	> 25 µM	> 25 µM	> 25 µM	> 25 µM	> 25 µM	> 25 µM	> 25 µM	> 25 µM	> 25 µM	> 25 µM	> 25 µM	> 25 µM	> 25 µM
COc1ccc2oc(=O)cc(C(c3ccc[nH]3)c3ccc[nH]3)c2c1	0.116 µM	14.2 µM	0.107 µM	10.3 µM	0.0837 µM	0.191 µM	0.118 µM	10.8 µM	0.108 µM	15.5 µM	0.08 µM	0.141 µM	0.0902 µM	0.44 µM	0.106 µM	17.6 µM	< 0.0505 µM	0.389 µM	0.132 µM	16.4 µM

Reference: PubChem BioAssay (NCI)
